{"source": "patent US20250186433A1", "about": "“ACSS2 INHIBITORS AND METHODS OF USE THEREOF” (EpiVario, Inc., priority 2017, published 2025)", "key": {"ACSS2 [1]": {"biological_target": "T1, ACSS2 (Homo sapiens, UniProt Q9NR19)", "T1 sequence (Q9NR19 whole entry)": "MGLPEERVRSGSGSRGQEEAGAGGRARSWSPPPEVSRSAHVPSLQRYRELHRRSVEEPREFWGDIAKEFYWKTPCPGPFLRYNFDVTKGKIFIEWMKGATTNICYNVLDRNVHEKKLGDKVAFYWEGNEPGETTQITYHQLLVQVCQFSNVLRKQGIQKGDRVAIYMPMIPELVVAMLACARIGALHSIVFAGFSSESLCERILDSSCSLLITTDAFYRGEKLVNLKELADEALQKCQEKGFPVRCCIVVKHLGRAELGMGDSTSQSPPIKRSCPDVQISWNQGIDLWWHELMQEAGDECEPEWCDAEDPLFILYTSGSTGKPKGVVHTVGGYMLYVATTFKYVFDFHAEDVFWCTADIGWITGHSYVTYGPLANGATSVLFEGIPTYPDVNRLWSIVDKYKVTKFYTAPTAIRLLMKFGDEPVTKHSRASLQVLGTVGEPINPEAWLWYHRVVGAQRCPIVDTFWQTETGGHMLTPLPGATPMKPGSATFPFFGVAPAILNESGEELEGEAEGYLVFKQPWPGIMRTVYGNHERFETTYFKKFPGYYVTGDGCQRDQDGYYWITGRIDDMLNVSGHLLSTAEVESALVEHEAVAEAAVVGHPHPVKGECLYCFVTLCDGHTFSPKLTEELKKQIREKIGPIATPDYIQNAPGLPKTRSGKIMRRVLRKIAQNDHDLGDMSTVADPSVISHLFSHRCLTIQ", "assay": "Thermal stabilization of recombinant ACSS2 protein (Nano-DSF)", "assay_type": "binding", "description": "Thermal stabilization of recombinant ACSS2 protein by ACSS2 inhibitors. Interaction between the compound and recombinant ACSS2 protein was done by non-labeled Nano-DSF technic using the parameters described below. NanoDSF is a modified differential scanning fluorimetry method to determine protein stability that uses tryptophan or tyrosine fluorescence to monitor protein unfolding. The binding of compound to the protein leads to thermal stabilization that is quantified as the delta in the thermal melting points."}, "ACSS1": {"biological_target": "T2, ACSS1 (Homo sapiens, UniProt Q9NUB1)", "T2 construct": "purchased Cusabio, China", "T2 sequence (Q9NUB1 38-689)": "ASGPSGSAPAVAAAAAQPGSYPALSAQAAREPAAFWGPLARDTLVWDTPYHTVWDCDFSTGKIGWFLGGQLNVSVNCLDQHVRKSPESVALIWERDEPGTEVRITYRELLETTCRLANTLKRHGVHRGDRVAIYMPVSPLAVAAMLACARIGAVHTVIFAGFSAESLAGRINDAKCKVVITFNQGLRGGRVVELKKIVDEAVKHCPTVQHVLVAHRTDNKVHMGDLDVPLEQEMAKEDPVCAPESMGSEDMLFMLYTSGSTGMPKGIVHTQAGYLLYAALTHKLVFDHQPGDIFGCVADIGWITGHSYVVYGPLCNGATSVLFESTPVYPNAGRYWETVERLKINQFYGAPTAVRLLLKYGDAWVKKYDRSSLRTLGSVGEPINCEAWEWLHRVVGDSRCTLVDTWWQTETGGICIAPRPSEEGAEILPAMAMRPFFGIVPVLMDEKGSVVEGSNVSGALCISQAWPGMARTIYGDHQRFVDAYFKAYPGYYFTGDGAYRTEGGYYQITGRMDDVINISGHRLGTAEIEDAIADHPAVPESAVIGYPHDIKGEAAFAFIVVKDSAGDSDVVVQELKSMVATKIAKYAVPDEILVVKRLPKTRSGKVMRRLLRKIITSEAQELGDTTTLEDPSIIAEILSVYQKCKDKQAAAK", "assay": "Acyl-CoA synthetases selectivity panel: ACSS1", "assay_type": "biochemical", "settings": "human recombinant protein, substrate acetate, AMP readout by HPLC; read-out: HPLC based activity assays IC50 (UM) ACSS1", "description": "(§1) The biochemical assays for testing the selectivity of the compounds according to this invention, were done using human recombinant proteins (Cusabio, China). The readout of the assays was AMP levels, the […] of the reactions, by HPLC method. The acyl substrates (Sigma-Aldrich) of the assays were as followed: ACSS1/ACSS2—Acetate, AACS-Acetoacetyl, ACSF2—Octanoate and ACSL5—Palmitate. The protein in this panel include ACSS1, the closest homolog of ACSS2, in addition to representative short/medium/long chain acyl-CoA syntatases."}, "ACSF2": {"biological_target": "T3, ACSF2 (Homo sapiens, UniProt Q96CM8)", "T3 construct": "purchased Cusabio, China", "T3 sequence (Q96CM8 42-615)": "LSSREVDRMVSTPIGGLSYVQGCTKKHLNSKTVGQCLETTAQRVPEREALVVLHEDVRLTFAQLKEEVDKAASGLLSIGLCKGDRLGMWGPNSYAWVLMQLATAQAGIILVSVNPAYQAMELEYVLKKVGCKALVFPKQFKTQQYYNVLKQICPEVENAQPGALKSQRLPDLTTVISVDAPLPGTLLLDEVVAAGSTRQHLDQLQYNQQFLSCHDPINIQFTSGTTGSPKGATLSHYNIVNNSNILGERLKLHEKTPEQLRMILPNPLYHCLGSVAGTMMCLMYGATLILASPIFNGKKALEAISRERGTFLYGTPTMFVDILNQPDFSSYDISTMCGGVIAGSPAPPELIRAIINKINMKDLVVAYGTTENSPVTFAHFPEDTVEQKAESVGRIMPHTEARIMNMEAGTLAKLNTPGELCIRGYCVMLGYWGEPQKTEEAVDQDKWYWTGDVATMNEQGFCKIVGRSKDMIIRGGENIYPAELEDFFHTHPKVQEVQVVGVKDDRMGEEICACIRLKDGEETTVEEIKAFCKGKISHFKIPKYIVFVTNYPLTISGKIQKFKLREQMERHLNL", "assay": "Acyl-CoA synthetases selectivity panel: ACSF2", "assay_type": "biochemical", "settings": "human recombinant protein, substrate octanoate, AMP readout by HPLC; read-out: HPLC based activity assays IC50 (UM) ACSF2", "description": "as §1"}, "ACSL5": {"biological_target": "T4, ACSL5 (Homo sapiens, UniProt Q9ULC5)", "T4 construct": "purchased Cusabio, China", "T4 sequence (Q9ULC5 1-683)": "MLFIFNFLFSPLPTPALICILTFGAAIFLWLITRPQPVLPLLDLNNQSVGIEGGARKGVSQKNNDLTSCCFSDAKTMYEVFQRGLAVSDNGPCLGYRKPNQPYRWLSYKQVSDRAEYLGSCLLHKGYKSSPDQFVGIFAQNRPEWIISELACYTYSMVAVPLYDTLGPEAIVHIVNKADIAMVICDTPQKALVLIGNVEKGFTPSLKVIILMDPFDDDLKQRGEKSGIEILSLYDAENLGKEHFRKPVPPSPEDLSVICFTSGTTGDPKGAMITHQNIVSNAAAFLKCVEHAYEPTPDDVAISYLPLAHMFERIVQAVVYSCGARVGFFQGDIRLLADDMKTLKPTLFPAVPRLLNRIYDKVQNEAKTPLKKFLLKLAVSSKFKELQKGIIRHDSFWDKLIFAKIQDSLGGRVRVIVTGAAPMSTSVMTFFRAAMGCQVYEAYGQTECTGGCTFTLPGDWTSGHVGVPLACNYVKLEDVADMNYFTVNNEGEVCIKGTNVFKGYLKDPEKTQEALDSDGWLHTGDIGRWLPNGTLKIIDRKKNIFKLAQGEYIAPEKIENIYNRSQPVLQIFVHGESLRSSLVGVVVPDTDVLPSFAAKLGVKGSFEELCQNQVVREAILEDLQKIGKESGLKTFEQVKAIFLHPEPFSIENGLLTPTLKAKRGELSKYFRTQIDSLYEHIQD", "assay": "Acyl-CoA synthetases selectivity panel: ACSL5", "assay_type": "biochemical", "settings": "human recombinant protein, substrate palmitate, AMP readout by HPLC; read-out: HPLC based activity assays IC50 (UM) ACSL5", "description": "as §1"}, "ACSS2 [2]": {"biological_target": "T1, ACSS2", "assay": "Acyl-CoA synthetases selectivity panel: ACSS2", "assay_type": "biochemical", "parameters": "purchased Cusabio, China", "settings": "human recombinant protein, substrate acetate, AMP readout by HPLC; read-out: HPLC based activity assays IC50 (UM) ACSS2", "description": "as §1"}}, "data": [{"smiles": "COC(=O)c1cccc(N2N=C(C)C(C(=O)Nc3cccc(C(C)(F)F)c3)C2=O)c1", "note": "(stereo not drawn) [compound 261, methyl 3-(4-((3-(1,1-difluoroethyl)phenyl)carbamoyl)-3-methyl-5-oxo-4,5-dihydro-1H-pyrazol-1-yl)benzoate]", "values": [{"measurement": "thermal shift in the melting temperature of ACSS2", "setting": "ACSS2 [1]; 0.03 mg/ml ACSS2, compound at different concentrations", "result": "dose-dependent thermal shift in the melting temperature of ACSS2"}, {"measurement": "thermal shift in the presence of ATP or ATP and CoA versus buffer alone", "setting": "ACSS2 [1]; 0.3 mM ATP, 0.3 mM ATP + 0.01 mM CoA", "result": "higher in the presence of ATP or ATP and CoA"}, {"measurement": "IC50", "setting": "ACSS1", "result": "1 to 10", "unit": "µM"}, {"measurement": "IC50", "setting": "ACSF2", "result": 46, "unit": "µM"}, {"measurement": "IC50", "setting": "ACSL5", "result": "> 100", "unit": "µM"}, {"measurement": "IC50", "setting": "ACSS2 [2]", "result": "< 0.001", "unit": "µM"}]}]}
